This note sets out measurements from patent US4477443A, “Tylosin derivatives, their preparation and pharmaceutical compositions containing them” (Zaidan Hojin Biselbutsu Kagaku Kenkyu Kai (Microbial …, priority 1981, dated 1984).

Molecules are shown by their SMILES. ≈ marks a conversion by molar mass, not a printed value. Like-named read-outs stand apart in the source and are kept apart here. Some results are limits rather than exact numbers.

Common to all, as to format: cell-based
For assay [1], the system named is B. subtilis ATCC 6633. Briefly: antimicrobial activity (MIC), Table II. The conditions noted are these: Bacillus subtilis, ATCC6633.
The test system of assay [2] is E. coli K-12 ML 1410. Kind of assay: antimicrobial activity (MIC), Table I. To be noted: Escherichia coli, K12ML1410.
Assay [3] has as its system E. coli K-12. Briefly: antimicrobial activity (MIC), Table I. To be noted: Escherichia coli, K12; E. coli K-12; read-out: MIC.
For assay [4], the system named is Staph. epidermidis IID 886. Briefly: antimicrobial activity (MIC), Table II. The conditions noted are these: Staphylococcus epidermidis, IID886.
In assay [5] the test system is Pro. vulgaris OX-19. Kind of assay: antimicrobial activity (MIC), Table I. To be noted: Proteus vulgaris, OX19.
Assay [6] relates to Sarcina lutea PCI 1001. Kind of assay: antimicrobial activity (MIC), Table I. To be noted: Micrococcus luteus, PCI1001; Sarcina lutea PCI 1001; read-out: MIC.
Assay [7] concerns E. coli K-12 LA 290 R 55. Briefly: antimicrobial activity (MIC), Table I. To be noted: Escherichia coli.
Assay [8] has as its system Staph. aureus 193. Kind of assay: antimicrobial activity (MIC), Table I. The conditions noted are these: Staphylococcus aureus; Staph. aureus 193; read-out: MIC.
Assay [9] relates to Staph. aureus ATCC 6538P. Kind of assay: antimicrobial activity (MIC), Table II. To be noted: Staphylococcus aureus, ATCC6538P; Staph. aureus ATCC 6538P; read-out: MIC.
For assay [10], the system named is Staph. aureus KC-11. Kind of assay: antimicrobial activity (MIC), Table II. The conditions noted are these: Staphylococcus aureus, KC11; Staph. aureus KC-11; read-out: MIC.
The subject of assay [11] is Coryn. bovis 1810. Kind of assay: antimicrobial activity (MIC), Table I. To be noted: Corynebacterium bovis; Coryn. bovis 1810; read-out: MIC.
Assay [12] relates to E. coli K-12 R-5. Kind of assay: antimicrobial activity (MIC), Table I. The conditions noted are these: Escherichia coli, K12R5; E. coli K-12 R-5; read-out: MIC.
The test system of assay [13] is Staph. aureus 226. Briefly: antimicrobial activity (MIC), Table II. To be noted: Staphylococcus aureus; Staph. aureus 226; read-out: MIC.
Assay [14] has as its system B. cereus. Kind of assay: antimicrobial activity (MIC), Table II. To be noted: Bacillus cereus.
Assay [15] concerns Shigella dysenteriae JS 11910. Kind of assay: antimicrobial activity (MIC), Table I. The conditions noted are these: JS11910.
In assay [16] the test system is Staph. aureus MS 9861. Kind of assay: antimicrobial activity (MIC), Table I. The conditions noted are these: Staphylococcus aureus, MS9861; Staph. aureus MS 9861; read-out: MIC.
The subject of assay [17] is Staph. aureus 209 P. Kind of assay: antimicrobial activity (MIC), Table I. The conditions noted are these: Staphylococcus aureus; Staph. aureus 209 P; read-out: MIC.
In assay [18] the test system is E. coli NIHJ. Briefly: antimicrobial activity (MIC), Table I. The conditions noted are these: Escherichia coli; E. coli NIHJ; read-out: MIC.
The subject of assay [19] is Kleb. pneumoniae PCI 602. Briefly: antimicrobial activity (MIC), Table I. To be noted: Klebsiella pneumoniae, PCI602; Kleb. pneumoniae PCI 602; read-out: MIC.
Assay [20] relates to Sal. enteritidis 1891. Kind of assay: antimicrobial activity (MIC), Table I. The conditions noted are these: Salmonella enterica; Sal. enteritidis 1891; read-out: MIC.
Assay [21] relates to B. subtilis NRRL B-558. Kind of assay: antimicrobial activity (MIC), Table I. The conditions noted are these: Bacillus subtilis, NRRLB558; B. subtilis NRRL B-558; read-out: MIC.
Where [22] appears, read: Pro. vulgaris OX-19, read-out: MIC.

As usually defined, the MIC is the smallest concentration in the dilution series that meets the test's criterion for growth inhibition. In the case of `CC[C@H]1OC(=O)C[C@@H](O)[C@H](C)[C@@H](O[C@@H]2O[C@H](C)[C@@H](O[C@H]3C[C@@](C)(O)[C@@H](O)[C@H](C)O3)[C@H](N(C)C)[C@H]2O)[C@@H](CC=O)C[C@@H](C)C(=O)/C=C/C(C)=C/[C@@H]1CO[C@@H]1O[C@H](C)[C@@H](O)[C@@H](OC)[C@H]1OC` [Tylosin], the MIC is 0.78 µg/mL (≈ 0.851 µM) in [1]; > 100 µg/mL in assay [2]; > 100 µg/mL in assay [3]; 1.56 µg/mL (≈ 1.7 µM) in assay [4]; > 100 µg/mL in assay [5]; < 0.2 µg/mL in assay [6]. Also, the minimum inhibitory concentration (MIC) in assay [7] is > 100 µg/mL; in assay [8], 0.78 µg/mL (≈ 0.851 µM); in assay [9], 1.56 µg/mL (≈ 1.7 µM); in assay [10], 1.56 µg/mL (≈ 1.7 µM); in [11], 0.2 µg/mL (≈ 0.218 µM); in [12], > 100 µg/mL. Besides, the MIC in assay [13] came out at 1.56 µg/mL (≈ 1.7 µM); in [14], 0.78 µg/mL (≈ 0.851 µM).
Regarding `CCC1OC(=O)CC(O)C(C)C(OC2OC(C)CC(N(C)C)C2O)C(CC=O)CC(C)C(=O)C=CC(C)=CC1CN(C)C` (centres unmarked) [Example 9, 23,4'-dideoxy-23-dimethylaminomycaminosyl tylonolide], the MIC was 0.39 µg/mL (≈ 0.641 µM) in [2]; 0.39 µg/mL (≈ 0.641 µM) in assay [3]; < 0.2 µg/mL in assay [15]; 0.78 µg/mL (≈ 1.28 µM) in assay [5]; 0.2 µg/mL (≈ 0.329 µM) in [6]; 0.39 µg/mL (≈ 0.641 µM) in assay [16]. The MIC in [17] was < 0.2 µg/mL; in assay [7], 0.39 µg/mL (≈ 0.641 µM); in assay [18], < 0.2 µg/mL; in assay [19], 0.2 µg/mL (≈ 0.329 µM); in assay [20], < 0.2 µg/mL; in assay [8] it was < 0.2 µg/mL. For the same compound, the MIC in [21] is < 0.2 µg/mL; in [11], 0.2 µg/mL (≈ 0.329 µM); in assay [12] it was 0.39 µg/mL (≈ 0.641 µM).
Regarding `CCCN(CCC)CC1C=C(C)C=CC(=O)C(C)CC(CC=O)C(OC2OC(C)C(O)C(N(C)C)C2O)C(C)C(O)CC(=O)OC1CC` (centres unmarked) [Example 6, 23-deoxy-23-dipropylaminomycaminosyl tylonolide], the minimum inhibitory concentration (MIC) was 3.12 µg/mL (≈ 4.58 µM) in assay [2]; 1.56 µg/mL (≈ 2.29 µM) in assay [3]; 0.39 µg/mL (≈ 0.573 µM) in assay [15]; 1.56 µg/mL (≈ 2.29 µM) in assay [5] (setting [22]); < 0.2 µg/mL in assay [6]; 1.56 µg/mL (≈ 2.29 µM) in [16]. For the same compound, the minimum inhibitory concentration (MIC) in [17] was < 0.2 µg/mL; in assay [7], 1.56 µg/mL (≈ 2.29 µM); in assay [18], 0.78 µg/mL (≈ 1.15 µM); in assay [19] it was 0.78 µg/mL (≈ 1.15 µM); in assay [20], 1.56 µg/mL (≈ 2.29 µM); in assay [8], < 0.2 µg/mL. In addition, the MIC is 0.39 µg/mL (≈ 0.573 µM) in assay [21], < 0.2 µg/mL in assay [11] and 1.56 µg/mL (≈ 2.29 µM) in assay [12].
Consider `CCC1OC(=O)CC(O)C(C)C(OC2OC(C)CC(N(C)C)C2O)C(CC=O)CC(C)C(=O)C=CC(C)=CC1CN(CC)CC` (centres unmarked) [Example 10, 23,4'-dideoxy-23-diethylaminomycaminosyl tylonolide], for which the MIC is 0.39 µg/mL (≈ 0.612 µM) in assay [2] (E. coli K-12 ML 1410, read-out: MIC); 0.39 µg/mL (≈ 0.612 µM) in assay [3]; < 0.2 µg/mL in assay [15]; 0.39 µg/mL (≈ 0.612 µM) in [5] (setting [22]); < 0.2 µg/mL in [6]; 0.78 µg/mL (≈ 1.22 µM) in assay [16]. The MIC is < 0.2 µg/mL in assay [17]; 0.39 µg/mL (≈ 0.612 µM) in [7]; < 0.2 µg/mL in assay [18]; 0.2 µg/mL (≈ 0.314 µM) in assay [19]; 0.39 µg/mL (≈ 0.612 µM) in [20]; < 0.2 µg/mL in [8]. Moreover, the values for the MIC in assay [21], in assay [11] and in [12] were < 0.2 µg/mL, < 0.2 µg/mL and 0.39 µg/mL (≈ 0.612 µM), respectively.
